Drawing on patent US5286721A, “1-azabicyclo[3.2.0]hept-2-ene-2-carboxylic acid compounds” (Fujisawa Pharmaceutical Co., Ltd., priority 1990, dated 1994), this text covers MIC for one compound.

The subject of this test is S. aureus 6. Kind of test: In vitro antimicrobial activity (two-fold agar-plate dilution method). The settings on record: Staphylococcus aureus, heart infusion agar (HI-agar), 10^6 viable cells per ml, 37° C., 20 hours, read-out: MIC (minimal inhibitory concentration). It counts as cell-based. How it is done:
In vitro Antimicrobial Activity was determined by the two-fold agar-plate dilution method as described below.
One loopful of an overnight culture of a test strain in Trypticase-soy broth (10^6 viable cells per ml) was streaked on heart infusion agar (HI-agar) containing graded concentrations of the test compound, and the minimal inhibitory concentration (MIC) was expressed in terms of μg/ml after incubation at 37° C. for 20 hours.

Take `C[C@@H](O)[C@H]1C(=O)N2C(C(=O)O)=C(C3CN=CNC3)C[C@H]12` (stereo partly drawn) [Example 1, [5R,6S)-6-[(R)-1-hydroxyethyl]-3-[3,4,5,6-tetrahydropyrimidin-5-yl]-7-oxo-1-azabicyclo[3.2.0]hept-2-ene-2-carboxylic acid]: the MIC was at most 0.025 µg/mL.
